These results are taken from PMC7809749, “Tumor vasculature-targeted ^10B delivery by an Annexin A1-binding peptide boosts effects of boron neutron capture therapy” (BMC Cancer, 2021).

In series [1] the test system is tumor. As to conditions: after intravenous injection; cited from earlier work.
For series [2] the following is noted: cited from earlier work. As for the experimental part: To facilitate esterase-aided ^10BPA release following delivery to a tumor, we conjugated IF7C to ^10BPA via an ester bond with a propanolamine linker. Following analysis of 584 mg of IF7C(^10BPA)RR, we determined its purity to be 99.5% (Fig. S1A). By contrast, to design a conjugate to be internalized by tumor cells, we conjugated IF7K to ^10BSH directly through an uncleavable linker, N-(6-maleimidocaproyloxy) sulfosuccinimide (Sulfo-EMCS). We synthesized a total of 411 mg IF7K(^10BSH)RR, and determined its purity to be 98.8% (Fig. S1B).

For series [3], the system named is MBT2 bladder tumor-bearing C3H/He mice. The series can be described thus: ^10B concentration in tumors and normal organs by prompt gamma-ray analysis. It is filed as in vivo, mouse. The conditions noted are these: for Intratumoral ^10B concentration: IF7 conjugates 7 mg/kg, fructose-^10BPA 0.791 mg/kg, ^10BSH 0.868 mg/kg, MBT2 tumor; for Intratumoral ^10B concentration / ^10B tumor/blood (T/B) ratio: mean ± SD; for ^10B tumor/blood (T/B) ratio: same doses; for Tumor/blood (T/B) ratio, range: by 40 min after injection (range over 5-40 min); for Intratumoral concentration reached: ultralow dose 7 mg/kg iv, MBT2 tumor-bearing mice, discussion summary. As for the experimental part:
MBT2 cells (1 × 10^6 cells per mouse) plus 50 μl Matrigel (Corning Inc., NY, USA) were injected subcutaneously using a 27-gauge needle into the right thighs of 8-week-old female C3H/He mice under anesthesia with 2% isoflurane inhalation. The day of injection was defined as day 0. At 4 weeks after MBT2 cells injection, when MBT2 tumors were palpable, mice were randomly divided into four groups of 16 mice each and injected intravenously with: 1) fructose-^10BPA ((0.791 mg/kg), 2) IF7C(^10BPA)RR (7 mg/kg), 3) ^10BSH 0.868 mg/kg), or 4) IF7K(^10BSH)RR (7 mg/kg). Within 5, 10, 20, and 40 min of injection, four mice at each time point were sacrificed by cervical dislocation under anesthesia with 2% isoflurane inhalation. From each mouse, the tumor, brain, lung, heart, liver, kidney, bladder, stomach, intestine, spleen, skin, muscles, and blood were collected in a Teflon tube for ^10B measurement. ^10B concentrations in tissues were measured by prompt gamma-ray spectrometry using a thermal neutron guide tube installed at the Institute for Integrated Radiation and Nuclear Science, Kyoto University (KURNS).

The subject of series [4] is murine MBT2 bladder tumor. The series can be described thus: Nuclear reactor-based BNCT of MBT2 bladder tumor-bearing mice. Format: in vivo, mouse. The conditions noted are these: compound-mediated BNCT: 10 mg/kg iv 40 min before neutron irradiation (60 min, 1 MW); MBT2, n = 3; mean ± SD. As to the method: MBT2 cells were injected as described above into the right thighs of 8-week-old female C3H/He mice, and the day of injection defined as day 0. Four weeks later, when MBT2 tumors were palpable, mice were randomly divided into six groups of 3 mice each: 1) untreated control, 2) IF7C(^10BPA)RR, 3) IF7K(^10BSH)RR, 4) neutron-irradiated controls, 5) IF7C(^10BPA)RR-mediated BNCT, and 6) IF7K(^10BSH)RR-mediated BNCT. In Groups 4, 5, and 6, tumors in right thighs were subjected to neutron beam irradiation at the heavy water facility of KURNS Research Reactor for 60 min at a power of 1 MW. Each mouse was held within an acrylic holder during neutron irradiation, and a LiF plate (50 mm thick) was used to shield the body from thermal neutrons, while exposing the tumor. Neutron fluences were measured by radioactivation of gold foils (3 mm diameter; 0.05 mm thick) on surface of both sides of the tumors. Since thermal neutrons were rapidly attenuated in the tumor, the average thermal neutron fluences of both sides were adopted as the fluence irradiated to the tumors. In this study, tumors were irradiated by 1.9 × 10^12 thermal neutrons/cm^2. Thermoluminescent dosimeters for γ-ray dosimetry were attached to tumor surfaces. […] Tumor size was measured using calipers, and tumor volume (V) was calculated as: V = ab^2/2, where a and b are the major and minor axes, respectively. […]

The test system of series [5] is human YTS-1 bladder tumor xenograft. The series can be described thus: Cyclotron accelerator-based BNCT of human YTS-1 xenograft mice. As to conditions: mean ± SD; for Tumor volume at 4 weeks after start of first BNCT: compound injection without neutron irradiation, YTS-1 xenograft, nude mice, n = 8; for Tumor volume at 4 weeks: compound-mediated BNCT, 20 mg/kg iv 40 min before irradiation, two treatments one week apart, YTS-1, n = 8. It is filed as in vivo. As to the method: YTS-1 cells (2 × 10^6 cells per mouse) plus 50 μl Matrigel (Corning Inc.) were injected subcutaneously using a 27-gauge needle into the right thighs of 8-week-old female BALB/c nu/nu mice under anesthesia with 2% isoflurane inhalation. The day of injection was defined as day 0. One week later, when YTS-1 xenografts were palpable, mice were randomly divided into six groups of 8 mice each: 1) untreated control, 2) […], 4) neutron-irradiated controls, 5) IF7C(^10BPA)RR-mediated BNCT, and 6) IF7K(^10BSH)RR-mediated BNCT. In Groups 4, 5, and 6, tumors in thighs were subjected to neutron beam irradiation at the cyclotron-typed accelerator (Sumitomo Heavy Industries Ltd.) in the Aomori Prefecture Quantum Science Center for 60 min at a power of […] at 20 MeV. Radiation of mice was performed as described above. The average of the γ-ray dose was 0.23 Gy. Groups 5 and 6, IF7C(^10BPA)RR or IF7K(^10BSH)RR was administered intravenously 40 min before irradiation at a dose of 20 mg/kg. One week after the first BNCT, the second was administered using both the same method and irradiation method. The tumor size and volume was calculated as above. Four weeks after the first BNCT, all mice were sacrificed by cervical dislocation under anesthesia with 2% isoflurane inhalation, and tumors were weighed and prepared for immunohistochemical analysis.

Series [6] has as its system human YTS-1 xenograft tumors. The series can be described thus: Immunohistochemistry of YTS-1 xenografts (HE, CD8α, CD31, Ki-67, Anxa1). It is filed as in vivo. As to conditions: 3 weeks after second BNCT; for Number of CD8-positive lymphocytes per tumor area / Ki-67 proliferation index: mean ± SD; for Anxa 1 expression vs untreated, compound-only and neutron-irradiated controls: IHC. As for the experimental part:
BNCT-treated YTS-1 tumors were collected as described above, fixed in 20% formalin solution and embedded in paraffin. Tissue sections 4 μm thick were mounted on silane-coated glass slides and air-dried for 1 h. Deparaffinized tissue sections underwent heat-induced epitope retrieval using a Histofine antigen retrieval reagent (pH 6.0) (Nichirei Biosciences Inc. Tokyo, Japan) and were then incubated with anti-human Ki-67 antigen (clone MIB-1, 1:2000 dilution) or mouse anti-Anxa1 monoclonal antibody (clone MC16, 1:100 dilution) in phosphate-buffered saline (PBS) containing 5% bovine serum albumin (BSA) at 4 °C overnight. Other sections were treated with heat-induced epitope retrieval with Histofine antigen retrieval reagent (pH 9.0) (Nichirei Biosciences Inc.) and then incubated with rabbit anti-mouse CD8α (antibody (EPR21769, 1:2000 dilution) or anti-mouse CD31 (EPR17259, 1:2000 dilution) in PBS containing 5% BSA at 4 °C overnight. The Envision/HRP rabbit mouse kit was used for antibody detection (Agilent Technologies Japan., Tokyo, Japan). Nuclear counterstaining was performed by incubating sections with hematoxylin solution (Agilent Technologies Japan) for 2 min at room temperature. Eosin alcohol solution (Fujifilm Wako Pure Chemical Corporation) was used to perform HE staining, according to the manufacturer’s instruction. Images (10× objective) were captured using a Keyence BZ-9000 fluorescence microscope (Keyence, Tokyo, Japan) and BZ-II analyzer Ver 2.2 (Keyence). The white balance was adjusted for each specimen.
Six complete and non-overlapping tumor regions of interest (ROI) were selected from each case and saved as .tif files. The number of diaminobenzidine (DAB)-stained nuclei was determined in the ROI using color deconvolution and the particle analysis plug-in of the Fiji platform (ImageJ distribution, http://fiji.sc/Fiji). The mean number of CD8-positive lymphocytes in all six fields was used for statistical analysis. The number of diaminobenzidine (DAB)-stained blood vessels was counted in a ROI using the color deconvolution plug-in of the Fiji platform (ImageJ distribution, http://fiji.sc/Fiji). The mean number of CD31-positive blood vessels in all six fields was used for statistical analysis.
As above, six complete and non-overlapping tumor regions of interest (ROI) were selected and saved as .tif files, and diaminobenzidine (DAB)- and hematoxylin-stained nuclei were counted. Ki-67-positive nuclei were included in the count, regardless of staining intensity, in line with recommendations of the International Ki-67 in Breast Cancer Working Group. The number of DAB-stained nuclei was divided by the sum of DAB- and hematoxylin-stained nuclei, and values were expressed as a percentage. The mean percentage of Ki-67-positive cells in all six field was used for statistical analysis.

The mark [7] stands for this setting: compound injection without neutron irradiation.

Regarding IFLLWQR [IF7], the “Time for IF7 to target a tumor” value in series [1] is 9 min. The “Solubility in aqueous solution” value in series [2] is on record as “poorly soluble”.

Regarding “p-Boronophenylalanine [^10BPA, reference compound]”, the “Intratumoral ^10B concentration” value worked out at 2.5 ± 4.4 ppm in series [3] (5 min after iv injection), 2.6 ± 3.1 ppm in series [3] (10 min after iv injection), 0.0 ± 0.0 ppm in series [3] (20 min after iv injection) and 5.4 ± 5.0 ppm in series [3] (40 min after iv injection). Also, the “^10B tumor/blood (T/B) ratio” value in series [3] (5 min after iv injection) turned out to be 0.77 ± 1.33; in series [3] (10 min after iv injection), 0.87 ± 0.88; in series [3] (20 min after iv injection), 0.0 ± 0.0; in series [3] (40 min after iv injection), 3.16 ± 3.35. Besides, the “Tumor/blood (T/B) ratio, range” value in series [3] was 0.00–3.16.

Take “IFLLWQRC(EMCS-^10BPA)RR [IF7C(^10BPA)RR]”: in series [3] (5 min after iv injection), the “Intratumoral ^10B concentration” value stood at 9.3 ± 6.9 ppm and the “^10B tumor/blood (T/B) ratio” value is listed as 3.48 ± 3.49. In addition, in series [3] (10 min after iv injection), the “Intratumoral ^10B concentration” value is listed as 4.6 ± 0.8 ppm and the “^10B tumor/blood (T/B) ratio” value amounted to 2.41 ± 0.27. In series [3] (20 min after iv injection), the “Intratumoral ^10B concentration” value is recorded as 19.9 ± 20.4 ppm and the “^10B tumor/blood (T/B) ratio” value was 13.54 ± 19.68. In series [3] (40 min after iv injection), the “Intratumoral ^10B concentration” value was determined as 4.7 ± 0.5 ppm and the “^10B tumor/blood (T/B) ratio” value is given as 2.15 ± 0.50. Further, in series [3], the “Tumor/blood (T/B) ratio, range” value is reported as 2.15–13.54 and the Intratumoral concentration reached came to 20 ppm. Moreover, in series [4], the “Tumor volume 3 weeks after BNCT” value is 2.90 ± 0.49 mm^3. Besides, in series [5], the “Tumor volume at 4 weeks after start of first BNCT” value turned out to be 965 ± 844 mm^3 and the “Tumor volume at 4 weeks” value amounted to 123 ± 114 mm^3. In addition, in series [6] (setting [7]), the “Number of CD8-positive lymphocytes per tumor area” value (from here on “Number … per tumor area”) is reported as 709 ± 328 n/mm^2. Further, in series [6] (compound-mediated BNCT), the “Histology (HE and CD8α staining)” value is reported as “tissue necrosis with infiltration of CD8α-positive lymphocytes”; the “Anxa 1 expression vs untreated, compound-only and neutron-irradiated controls” value was “significantly higher”; the Ki-67 proliferation index was found to be 10.82 ± 6.31%; the “Number … per tumor area” value is reported as 4351 ± 1318 n/mm^2.

Consider “borocaptate sodium [^10BSH, reference compound]”, for which the “Intratumoral ^10B concentration” value in series [3] (5 min after iv injection) is 1.6 ± 1.4 ppm; in series [3] (10 min after iv injection) it was 7.5 ± 8.7 ppm; in series [3] (20 min after iv injection), 17.1 ± 12.8 ppm; in series [3] (40 min after iv injection), 1.7 ± 0.3 ppm. For the same substance, the “^10B tumor/blood (T/B) ratio” value is 0.41 ± 0.72 in series [3] (5 min after iv injection), 2.46 ± 2.28 in series [3] (10 min after iv injection), 8.72 ± 4.98 in series [3] (20 min after iv injection) and 1.71 ± 1.14 in series [3] (40 min after iv injection). Besides, the “Tumor/blood (T/B) ratio, range” value in series [3] is 0.41–8.72.

For “IFLLWQRK(EMCS-^10BSH)RR [IF7K(^10BSH)RR]”, in series [3] (5 min after iv injection), the “Intratumoral ^10B concentration” value is listed as 17.8 ± 11.1 ppm and the “^10B tumor/blood (T/B) ratio” value is 7.61 ± 8.81. Moreover, in series [3] (10 min after iv injection), the “Intratumoral ^10B concentration” value is reported as 27.0 ± 15.3 ppm and the “^10B tumor/blood (T/B) ratio” value stood at 10.92 ± 9.89. In series [3] (20 min after iv injection), the “Intratumoral ^10B concentration” value is on record as 16.2 ± 16.3 ppm and the “^10B tumor/blood (T/B) ratio” value came to 5.89 ± 3.57. In addition, in series [3] (40 min after iv injection), the “Intratumoral ^10B concentration” value came out at 15.4 ± 11.2 ppm and the “^10B tumor/blood (T/B) ratio” value worked out at 6.28 ± 7.45. In series [3], the “Tumor/blood (T/B) ratio, range” value is 5.89–10.92 and the Intratumoral concentration reached is reported as 25 ppm. Also, in series [4], the “Tumor volume 3 weeks after BNCT” value is 3111 ± 1769 mm^3. In addition, in series [5], the “Tumor volume at 4 weeks after start of first BNCT” value stood at 1511 ± 921 mm^3 and the “Tumor volume at 4 weeks” value was determined as 69 ± 79 mm^3. Also, the “Number … per tumor area” value in series [6] (setting [7]) stood at 860 ± 262 n/mm^2. Also, in series [6] (compound-mediated BNCT), the “Histology (HE and CD8α staining)” value was “tissue necrosis with infiltration of CD8α-positive lymphocytes”; the “Anxa 1 expression vs untreated, compound-only and neutron-irradiated controls” value was “significantly higher”; the Ki-67 proliferation index stood at 9.73 ± 8.39%; the “Number … per tumor area” value is 4498 ± 890 n/mm^2.
